Paper PMC6630832, “3-Vinylazetidin-2-Ones: Synthesis, Antiproliferative and Tubulin Destabilizing Activity in MCF-7 and MDA-MB-231 Breast Cancer Cells” (Pharmaceuticals, 2019)

Columns and labels:
[1] = test system: human MCF-7 breast cancer cells; test: Cell viability (Alamar Blue) antiproliferative assay in MCF-7 cells; type: cell-based; settings: Homo sapiens, MCF7, 72 h, human MCF-7 breast cancer cells; 72 h; mean ± SEM; read-out: Antiproliferative Activity IC50
Method: (§1) The human breast carcinoma cell line MCF-7, was purchased from the European Collection of Animal Cell Cultures (ECACC) and was cultured in Eagle’s minimum essential medium with 10% fetal bovine serum, 2 mM L-glutamine and 100 μg/mL penicillin/streptomycin. The medium was supplemented with 1% non-essential amino acids. The human breast carcinoma cell line MDA-MB-231 was purchased from the European Collection of Animal Cell Cultures (ECACC). MDA-MB-231 cells were maintained in Dulbecco’s modified Eagle’s medium (DMEM) supplemeted with 10% (v/v) fetal bovine serum, 2 mM L-glutamine and 100 μg/mL penicillin/streptomycin (complete medium). All media contained 100 U/mL penicillin and 100 μg/mL streptomycin. Triple negative breast cancer Hs578T cells and its invasive variant Hs578Ts(i)8 were obtained as a kind gift from Dr. Susan McDonnell, School of Chemical and Bioprocess Engineering, University College Dublin and were cultured in Dulbecco’s Modified Eagle’s Media (DMEM) with GlutaMAX^TM-I, with the same supplement as for MDA-MB-231 cells in the absence of non-essential amino acids. HEK-293T normal epithelial embryonic kidney cells were cultured in Dulbecco’s Modified Eagle’s Medium (DMEM) with GlutaMAX^TM-I in the absence of non-essential amino acids. K562 and HL-60 cells were originally obtained from the European Collection of Cell Cultures (Salisbury, UK).The K562 cells were derived from a patient in the blast crisis stage of CML HL-60 cells were derive from a patient with acute myeloid leukaemia. Cells were cultured in RPMI-1640 Glutamax medium supplemented with 10% FCS media, and 100 μg/mL penicillin/streptomycin. Cells were maintained at 37 °C in 5% CO2 in a humidified incubator. All cells were sub-cultured three times/week (adherent cells by trypsinisation).
(§2) Cells were seeded at a density of 5 × 10^3 cells/well (MCF-7), in triplicate in 96-well plates. After 24 h, cells were then treated with either medium alone, vehicle [1% ethanol (v/v)] or with serial dilutions of CA-4 or β-lactam analogue. Cell viability for MCF-7 and MDA-MB-231 was analysed using the Alamar Blue assay (Invitrogen Corp, Thermo Fisher Scientific, 168 Third Avenue, Waltham, MA, USA) according to the manufacturer’s instructions. After 72 h, Alamar Blue [10% (v/v)] was added to each well and plates were incubated for 3–5 h at 37 °C in the dark. Fluorescence was read using a 96-well fluorimeter with excitation at 530 nm and emission at 590 nm. Results were expressed as percentage viability relative to vehicle control (100%). Dose response curves were plotted and IC50 values (concentration of drug resulting in 50% reduction in cell survival) were obtained using the commercial software package Prism (GraphPad Software, Inc., 2365 Northside, Suite 560, San Diego, CA, USA). Experiments were performed in triplicate on at least three separate occasions.

[2] = test system: human MDA-MB-231 breast cancer cells; test: Cell viability (Alamar Blue) antiproliferative assay in MDA-MB-231 cells; type: cell-based; settings: mean ± SEM
Method: as §1, §2

MCF-7 cells = test: Lactate dehydrogenase (LDH) assay for cytotoxicity; type: cell-based; settings: Homo sapiens, MCF7, 72 h, read-out: cell death (LDH assay)
Method: Cytotoxicity was determined using the CytoTox 96 non-radioactive cytotoxicity assay (Promega Corporation; 2800 Woods Hollow Road, Madison, WI, USA) following the manufacturer’s protocol. Briefly, MCF-7 cells were seeded in 96-well plates, incubated for 24 hr and then treated with test compounds (7d, 7h, 7i, 7q, 7r, 7u, 7t, 10d, 10f, 12) as described in the cell viability assay above. After 72 h, 20 μL of ‘lysis solution (10X)’ was added to control wells and the plate was incubated for a further 1 hr to ensure 100% death. 50 μL of supernatant was carefully removed from each well and transferred to a new 96-well plate. 50 μL of reconstituted ‘substrate mix’ was added and the plate was placed in the dark at room temperature for 30 min. After this period, 50 μL of ‘stop solution’ was added to each well and the absorbance was read at a wavelength of 490 nm using a Dynatech MR5000 plate reader. The percentage cell death at 10 μM was calculated.

NCI 60 cell line panel = test: NCI60 cell line screen (SRB assay), whole panel or sub-panels; type: cell-based; settings: mean over the total NCI 60 cell line panel
From the text: The results are summarized in Tables S3–S5, Supplementary Information.
Table S5: NCI 60 cell line mean screening results for selected compounds NCI Ref. Compound GI50 TGI LC50 […]
a GI50 and LC50 are the mean concentrations required to inhibit the growth and kill 50 % of the cells over the total NCI 60 cell line panel in the assay respectively. […]
over the total NCI 60 cell line panel.

| Structure (SMILES) | IC50 [1] | melting point | further results |
| --- | --- | --- | --- |
| C=CC1C(=O)N(c2cc(OC)c(OC)c(OC)c2)C1c1ccc(Cl)cc1 (centres unmarked) [Compound 7b, 4-(4-Chlorophenyl)-1-(3,4,5-trimethoxyphenyl)-3-vinylazetidin-2-one] | 690 ± 110 nM | 104 °C | IC50 [2]: 191 ± 16 nM |
| C=CC1C(=O)N(c2cc(OC)c(OC)c(OC)c2)C1c1ccc([N+](=O)[O-])cc1 (centres unmarked) [Compound 7d, 4-(4-Nitrophenyl)-1-(3,4,5-trimethoxyphenyl)-3-vinylazetidin-2-one] | 3830 ± 530 nM |  | cytotoxicity at 10 µM (MCF-7 cells): 7.2% |
| C=CC1C(=O)N(c2cc(OC)c(OC)c(OC)c2)C1c1ccc(C)cc1 (centres unmarked) [Compound 7g, 4-p-Tolyl-1-(3,4,5-trimethoxyphenyl)-3-vinylazetidin-2-one] | 355 ± 30 nM | 106 to 107 °C |  |
| C=CC1C(=O)N(c2cc(OC)c(OC)c(OC)c2)C1c1ccc(OCCCC)cc1 (centres unmarked) [Compound 7j, 4-(4-Butoxyphenyl)-1-(3,4,5-trimethoxyphenyl)-3-vinylazetidin-2-one] | 14000 ± 1810 nM | 100 to 102 °C |  |
| C=CC1C(=O)N(c2cc(OC)c(OC)c(OC)c2)C1c1ccc(Oc2ccccc2)cc1 (centres unmarked) [Compound 7k, 4-(4-Phenoxyphenyl)-1-(3,4,5-trimethoxyphenyl)-3-vinylazetidin-2-one] | 57000 ± 3720 nM | 128 to 130 °C |  |
| C=CC1C(=O)N(c2cc(OC)c(OC)c(OC)c2)C1c1ccc(OCc2ccccc2)cc1 (centres unmarked) [Compound 7l, 4-(4-Benzyloxyphenyl)-1-(3,4,5-trimethoxyphenyl)-3-vinylazetidin-2-one] | 8020 ± 630 nM | 148 to 149 °C |  |
| C=CC1C(=O)N(c2cc(OC)c(OC)c(OC)c2)C1c1cccc2ccccc12 (centres unmarked) [Compound 7m, 4-Naphthalen-1-yl-1-(3,4,5-trimethoxyphenyl)-3-vinylazetidin-2-one] | 1740 ± 170 nM | 121 to 122 °C |  |
| C=CC1C(=O)N(c2cc(OC)c(OC)c(OC)c2)C1c1ccc2ccccc2c1 (centres unmarked) [Compound 7n, 4-Naphthalen-2-yl-1-(3,4,5-trimethoxyphenyl)-3-vinylazetidin-2-one] | 68 ± 10 nM | 145 to 146 °C | IC50 [2]: 77 ± 9 nM |
| C=CC1C(=O)N(c2cc(OC)c(OC)c(OC)c2)C1c1ccc(C#N)cc1 (centres unmarked) [Compound 7q, 4-[4-Oxo-1-(3,4,5-trimethoxyphenyl)-3-vinyl-azetidin-2-yl]benzonitrile] | 6250 ± 5050 nM |  | cytotoxicity at 10 µM (MCF-7 cells): 4.5% |
| C=CC1C(=O)N(c2cc(OC)c(OC)c(OC)c2)C1c1ccc(SC)cc1 (centres unmarked) [Compound 7r, 4-(4-Methylsulfanylphenyl)-1-(3,4,5-trimethoxyphenyl)-3-vinylazetidin-2-one] | 51 ± 1 nM |  | cytotoxicity at 10 µM (MCF-7 cells): 4.5% |
| C=CC1C(=O)N(c2cc(OC)cc(OC)c2)C1c1ccc(OC)cc1 (centres unmarked) [Compound 7u, 1-(3,5-Dimethoxyphenyl)-4-(4-methoxyphenyl)-3-vinylazetidin-2-one] | 170 ± 70 nM |  | cytotoxicity at 10 µM (MCF-7 cells): 3.5% |
| C=CC1C(=O)N(c2ccc(Cl)cc2)C1c1cc(OC)c(OC)c(OC)c1 (centres unmarked) [Compound 8b, 4-(3,4,5-Trimethoxyphenyl)-1-(4-chlorophenyl)-3-vinylazetidin-2-one] | 29200 ± 1140 nM | 131 to 133 °C |  |
| C=CC1C(=O)N(c2ccc(Br)cc2)C1c1cc(OC)c(OC)c(OC)c1 (centres unmarked) [Compound 8c, 4-(3,4,5-Trimethoxyphenyl)-1-(4-bromophenyl)-3-vinylazetidin-2-one] | 10400 ± 870 nM | 120 to 122 °C |  |
| C=CC1C(=O)N(c2ccc(C(C)(C)C)cc2)C1c1cc(OC)c(OC)c(OC)c1 (centres unmarked) [Compound 8e, 4-(3,4,5-Trimethoxyphenyl)-1-(4-tert-butylphenyl)-3-vinylazetidin-2-one] | 68800 ± 3630 nM | 172 to 174 °C |  |
| C=CC1C(=O)N(c2ccccc2)C1c1cc(OC)c(OC)c(OC)c1 (centres unmarked) [Compound 8f, 4-(3,4,5-Trimethoxyphenyl)-1-phenyl-3-vinylazetidin-2-one] | 50500 ± 4250 nM | 150 to 151 °C |  |
| C=CC1C(=O)N(c2ccc(CC)cc2)C1c1cc(OC)c(OC)c(OC)c1 (centres unmarked) [Compound 8h, 4-(3,4,5-Trimethoxyphenyl)-1-(4-ethylphenyl)-3-vinylazetidin-2-one] | 36400 ± 2130 nM | 110 to 112 °C |  |
| C=CC1C(=O)N(c2ccc(NC(C)=O)cc2)C1c1cc(OC)c(OC)c(OC)c1 (centres unmarked) [Compound 8j, N-(4-(2-(3,4,5-Trimethoxyphenyl)-4-oxo-3-vinylazetidin-1-yl)phenyl)acetamide] | 4020 ± 640 nM | 223 to 224 °C |  |
| C=CC1C(=O)N(c2ccc(SC)cc2)C1c1cc(OC)c(OC)c(OC)c1 (centres unmarked) [Compound 8k, 1-(4-(Methylthio)phenyl)-4-(3,4,5-trimethoxyphenyl)-3-vinylazetidin-2-one] | > 50000 nM | 104 to 106 °C |  |
| COc1ccc(C2CC(=O)N2c2cc(OC)c(OC)c(OC)c2)cc1O (centres unmarked) [Compound 9c, 4-(3-Hydroxy-4-methoxyphenyl)-1-(3,4,5-trimethoxyphenyl)-azetidin-2-one] | 17 nM | 78 to 80 °C |  |
| C/C=C/C(O)C1C(=O)N(c2cc(OC)c(OC)c(OC)c2)C1c1ccc(OC)cc1 (centres unmarked) [Compound 10b, 3-((E)-1-Hydroxybut-2-enyl)-1-(3,4,5-trimethoxyphenyl)-4-(4-methoxyphenyl) azetidin-2-one] | 292 ± 50 nM | 143 to 144 °C |  |
| COc1ccc(C2C(C(C)(C)O)C(=O)N2c2cc(OC)c(OC)c(OC)c2)cc1O (centres unmarked) [Compound 10d, 4-(3-Hydroxy-4-methoxyphenyl)-3-(1-hydroxy-1-methylethyl)-1-(3,4,5-trimethoxy-phenyl)azetidin-2-one] | 544 ± 310 nM |  | cytotoxicity at 10 µM (MCF-7 cells): 9.8% |
| COc1ccc(C2C(C(O)C=Cc3ccccc3)C(=O)N2c2cc(OC)c(OC)c(OC)c2)cc1O (centres unmarked) [Compound 10f, 4-(3-Hydroxy-4-methoxy-phenyl)-3-(1-hydroxy-3-phenyl-allyl)-1-(3,4,5-trimethoxy-phenyl)-azetidin-2-one] | 46 ± 41 nM |  | cytotoxicity at 10 µM (MCF-7 cells): 7.6% |
| CC=C1C(=O)N(c2cc(OC)c(OC)c(OC)c2)C1c1ccc(OC)c(O)c1 (centres unmarked) [Compound 12, 3-Ethylidene-4-(3-hydroxy-4-methoxy-phenyl)-1-(3,4,5-trimethoxy-phenyl)-azetidin-2-one] | 502 ± 212 nM |  | cytotoxicity at 10 µM (MCF-7 cells): 8.4% |
| COc1ccc(C2CC(=O)N2c2cc(OC)c(OC)c(OC)c2)cc1OP(=O)(O)O (centres unmarked) [Compound 17a, 2-Methoxy-5-(1-(3,4,5-trimethoxyphenyl)-4-oxoazetidin-2-yl)phenyl dihydrogen phosphate] | 22 ± 1.5 nM |  | IC50 [2]: 30 ± 4 nM; TGI (mean) (NCI 60 cell line panel): 39800 nM; GI50 (NCI 60 cell line panel; read-out: GI50 (mean)): 141 nM; CC50 (NCI 60 cell line panel; read-out: LC50 (mean)): 87100 nM |
